In patent EP1038880B1, “Androstanes and pregnanes for allosteric modulation of GABA receptor” (priority 1994, dated 1995):
“And” between values parts separate entries of the source, which are not always exact repeats. Equal values may be shown once.

What was measured:
GR complex = test: [35S]TBPS binding assay (inhibition of [35S]TBPS binding, cerebral cortex P2 homogenate); design: species or system rat; conditions: for IC50: 2 nM [35S]TBPS, rat cerebral cortex P2 homogenate; for IMAX: maximum inhibition of [35S]TBPS binding
Procedure: We performed several experiments to determine the nature of the modulation of [^35S]TBPS as affected by the compounds of the invention.
These procedures were performed as follows:
Brains from male Sprague-Dawley rats were removed immediately following sacrifice and the cerebral cortices dissected over ice. […] Briefly, the cortices were gently homogenized in 0.32 M sucrose followed by centrifugation at 1000 x g for 10 minutes. The supernatant was collected and centrifuged at 9000 x g for 20 minutes. The resultant P2 pellet was suspended as a 10% (original wet weight/volume) suspension in 50 mM Na/K phosphate buffer (pH 7.4) 200 mM NaCl to form the homogenate.
One hundred microliter […] aliquots of the P2 homogenate (0.5 milligrams (mg) protein) were incubated with 2 nanomolar (nM) [^35S]TBPS (70-110 curies/millimole; New England Nuclear, Boston, MA) in the presence or absence of the naturally occurring steroids or their synthetic derivatives to be tested. The tested compounds were dissolved in dimethylsulfoxide (Baker Chem. Co., Phillipsbury, NJ) and added to the incubation mixture in 5 µL aliquots. The incubation mixture was brought to a final volume of 1 mL with buffer. Non-specific binding was defined as binding in the presence of […] TBPS. The effect and specificity of GABA (Sigma Chem. Co., St. Louis, MO) was evaluated by performing all assays in the presence of GABA plus (+)bicuculline (Sigma Chem. Co.). maintained at 25°C for 90 minutes (steady state conditions) were terminated by rapid filtration through glass fiber filters (No. 32, Schleicher and Schuell, Keene, NH). Filter-bound radioactivity was quantitated by liquid scintillation spectrophotometry.
Various compounds were screened to determine their potential as modulators of [^35S]TBPS binding in vitro. These assays were performed in accordance with the above discussed procedures. […] It is an indication of a compound's in vitro potency. Maximum inhibition is an indication of a compound's in vitro efficacy.

[1] = system: metrazol induced convulsions; test: animal or person; format: in vivo, mice; conditions: for responders at 10 mg/kg: Mus musculus, 10 min, 10 minutes prior to metrazol (85 mg/kg), read-out: % Protected
Procedure: Experiments were also performed to determine the physiological relevance of neuroactive steroid and GABA receptor interactions by assessing the ability of the compounds of and used in the invention to prevent metrazol induced convulsions in mice. Mice were injected with various doses of the test compounds of the invention, 10 minutes prior to the injection of metrazol. The time to onset of myoclomis (presence of forelimb clonic activity) induced by metrazol was determined by observing each mouse for a period of 30 minutes. […] Table 6: Antimetrazol Activity of Neuroactive Steroids in Mice
The anticonvulsant tests are similar to that described above. […] The number of animals with tonic and/or clonic convulsions was recorded. In the maximal electroshock test, 50 mA of current at 60 Hz was delivered through corneal electrodes for 200 msec to induce tonic seizure. The ability of compounds to abolish the tonic component was defined as the endpoint. General CNS depression potential was determined by a rotorod test 10 minutes after the injection of compounds where the number of mice staying on a rotating (6 rpm) rod for 1 minute in one of the three trials was determined. […] Table 7. Anticonvulsant Activity of Exemplified Neuroactive Steroids and those of Selected Clinically Useful Anticonvulsants in Mice

Compound	IC50 (GR complex)	IMAX (GR complex)	also measured
CC(=O)[C@H]1CC[C@H]2[C@@H]3CC[C@@H]4C[C@@](O)(C#CCCCC#N)CC[C@]4(C)[C@H]3CC[C@]12C [3β-(5-Cyano-1-pentynyl)-3α-hydroxy-5β-pregnan-20-one]	158 nM	100%	responders at 10 mg/kg ([1]; IP): 25%
CCC(=O)OC1CCC2(C)C(CCC3C2CCC2(C)C(C(C)=O)CCC32)C1 (stereo not drawn) [Ethyl]	–	–	% Protection ([1]; 60 mg/kg, 1hr, IP): 75%
CCCC(=O)OC1CCC2(C)C(CCC3C2CCC2(C)C(C(C)=O)CCC32)C1 (stereo not drawn) [Propyl]	–	–	% Protection ([1]; 60 mg/kg, 1hr, IP): 75%
CC(=O)C1CCC2C3CCC4CC(OC(=O)c5cccnc5)CCC4(C)C3CCC12C (stereo not drawn) [Example 3-Pyridyl]	–	–	% Protection ([1]; 60 mg/kg, IP, 20hour): 50(20hour) %
CC(=O)C1CCC2C3CCC4CC(OC(=O)c5ccc(Cl)cc5)CCC4(C)C3CCC12C (stereo not drawn) [4-Chlorophenyl]	–	–	% Protection ([1]; 60 mg/kg, 1hr, IP): 50%
CC12CCC3C4CCC(O)(C(F)(F)F)CC4CCC3C1CCC2C(=O)CSS(=O)(=O)[O-].[Na+] (stereo not drawn) [Sodium S-(3α-hydroxy-3β-trifluoromethyl-5β-19-norpregnan-20-on-21-yl) thiosulfate]	325 nM	98%	% Protected ([1]; IP, 40 mg/kg, water): 37.5%
CC(=O)[C@H]1CC[C@H]2[C@@H]3CC[C@H]4C[C@H](OC(=O)c5ccccc5)CC[C@]4(C)[C@H]3CC[C@]12C [Phenyl]	–	–	% Protection ([1]; 60 mg/kg, 1hr, IP): 33%
CC(=O)C1CCC2C3CCC4CC(O)(C#CCC(C)O)CCC4(C)C3CCC12C (racemic) [3β-[4'(R/S) hydroxypentynyl]-3α-hydroxy-5β-pregnan-20-one]	71 nM and 94 nM	103% and 104%	responders at 10 mg/kg ([1]; IP): 87.5%
CCCCC(=O)OC1CCC2(C)C(CCC3C2CCC2(C)C(C(C)=O)CCC32)C1 (stereo not drawn) [Butyl]	–	–	% Protection ([1]; mouse, in vivo): 33%
COc1ccc(C(=O)OC2CCC3(C)C(CCC4C3CCC3(C)C(C(C)=O)CCC43)C2)cc1 (stereo not drawn) [4-Methoxyphenyl]	–	–	% Protection ([1]; 60 mg/kg, 1hr, IP): 17%
CCCC(CCC)C(=O)OC1CCC2(C)C(CCC3C2CCC2(C)C(C(C)=O)CCC32)C1 (stereo not drawn) [Example 4-Heptyl]	–	–	% Protection ([1]; 60 mg/kg, IP, 4 hour): 16 (4 hour) %
CC(=O)OCCCC#C[C@@]1(O)CC[C@@]2(C)[C@H](CC[C@@H]3[C@@H]2CC[C@]2(C)[C@@H](C(C)=O)CC[C@@H]32)C1 [3β-(5'-Acetoxy-1'-pentynyl)-3α-hydroxy-5β-pregnan-20-one]	96 nM	98%	responders at 10 mg/kg ([1]; IP): 12.5%
CC(=O)[C@H]1CC[C@H]2[C@@H]3CC[C@@H]4C[C@@](O)(C#CCCO)CC[C@]4(C)[C@H]3CC[C@]12C [3β-(4'-hydroxy-1'-butynyl)-3α-hydroxy-5β-pregnan-20-one]	13 nM	103%	–
CC(=O)[C@H]1CC[C@H]2[C@@H]3CC[C@@H]4C[C@@](O)(C#Cc5ccc(C(N)=O)cc5)CC[C@]4(C)[C@H]3CC[C@]12C [3β-(4'-Carboxamidopheny)ethynyl-3α-hydroxy-5β-pregnan-20-one]	2240 nM	98%	–
CCOC(=O)c1ccc(C#CC2(O)CCC3(C)C(CCC4C3CCC3(C)C(C(C)=O)CCC43)C2)cc1 (stereo not drawn) [3β-(4'-Carboxyphenylethynyl)-3α-hydroxy-5α-pregnan-20-one ethyl ester]	7 nM	79%	–
CC(=O)[C@H]1CC[C@H]2[C@@H]3CC[C@@H]4C[C@@](O)(C#Cc5c(F)c(F)c(F)c(F)c5F)CC[C@]4(C)[C@H]3CC[C@]12C [3β-(pentafluorophenylethynyl)-3α-hydroxy-5β-pregnan-20-one]	79 nM	69%	–
COc1ccc(C#CC2(O)CCC3(C)C(CCC4C3CCC3(C)C(C(C)=O)CCC43)C2)cc1OC (stereo not drawn) [3β-(3',4'-Dimethoxyphenylethynyl)-3α-hydroxy-5β-pregnan-20-one]	–	106%	–

Compound	IC50 (GR complex)	IMAX (GR complex)	also measured
CC(=O)[C@H]1CC[C@H]2[C@@H]3CC[C@H]4C[C@@](O)(C#CCC(C)O)CC[C@]4(C)[C@H]3CC[C@]12C (mixture of isomers) [3β-[4'(R/S)-hydroxy-1'-pentynyl]-3α-hydroxy-5α-pregnan-20-one]	178 nM	101%	–
CC1(O)CCC2(C)C(CCC3C2CCC2(C)C(C(=O)Cn4nccn4)CCC32)C1 (stereo not drawn) [3α-hydroxy-3β-methyl-21(2'H-1',2',3'-triazol-2'-yl)-5α-pregnan-20-one]	85 nM	99%	–
CC12CCC(O)CC1CCC1C2CCC2(C)C(C(=O)Cn3cnc4ccccc43)CCC12 (stereo not drawn) [3α-hydroxy-21-(1'-benzimidazolyl)5β-pregnan-20-one]	53 nM	100%	–
C[C@]12CC[C@H]3[C@@H](CC[C@@H]4C[C@@](O)(C#CCCO)CC[C@@H]43)[C@@H]1CC[C@@H]2C(=O)Cn1ccnc1 [3α-Hydroxy-3β-(4-hydroxybutyn-1-yl)-21-(1-imidazolyl)-5β-19-norpregnan-20-one]	98 nM	98%	–
CC(=O)[C@H]1CC[C@H]2[C@@H]3CC[C@@H]4C[C@@](O)(C#CCCC#N)CC[C@]4(C)[C@H]3CC[C@]12C [3β-(4-cyano-1-butynyl)-3α-hydroxy-5β-pregnan-20-one]	131 nM	86%	–
C[C@]12CC[C@@H](O)C[C@H]1CC[C@@H]1[C@@H]2CC[C@]2(C)[C@@H](C(=O)Cn3cnc4cncnc43)CC[C@@H]12 [3α-hydroxy-21-(9'H-purin-9'-yl-5β-pregnan-20-one]	69 nM	59%	–
C[C@]12CC[C@@H](O)C[C@@H]1CC[C@@H]1[C@@H]2CC[C@]2(C)[C@@H](C(=O)Cn3ccc(=O)[nH]c3=O)CC[C@@H]12 [3α-Hydroxy-21-(1'-uracil)-5α-pregnan-20-one]	434 nM	90%	–
CCOC(=O)c1ccc(C#CC2(O)CCC3C(CCC4C3CCC3(C)C(C(C)=O)CCC43)C2)cc1 (stereo not drawn) [3β-(4'-Carboxyphenylethynyl)-3α-hydroxy-19-nor-5β-pregnan-20-one ethyl ester]	15 nM	94%	–
CC(=O)C1CCC2C3CCC4CC(OC(=O)C(C)C)CCC4(C)C3CCC12C (stereo not drawn) [Example 2-Propyl]	–	–	% Protection ([1]; 60 mg/kg, 1hr, IP): 75%
CC(=O)[C@H]1CC[C@H]2[C@@H]3CC[C@@H]4C[C@@](O)(C#Cc5ccc([N+](=O)[O-])cc5)CC[C@]4(C)[C@H]3CC[C@]12C [3β-(4'-Nitrophenylethynyl)-3α-hydroxy-5β-pregnan-20-one]	46 nM	103%	–
CC(=O)C1CCC2C3CCC4CC(O)(C#CCCO)CCC4(C)C3CCC12C (stereo not drawn) [3β-(4'-hydroxybutynyl)-3α-hydroxy-5α-pregnan-20-one]	–	95%	–
CC(=O)[C@H]1CC[C@H]2[C@@H]3CC[C@@H]4C[C@@](O)(C#CCN(C)C)CC[C@]4(C)[C@H]3CC[C@]12C [3β-[3'-(N,N-dimethylamino)-1'-propynyl]-3α-hydroxy-5β-pregnan-20-one]	1420 nM	100%	–
Cc1nccn1CC(=O)[C@H]1CC[C@H]2[C@@H]3CC[C@@H]4C[C@H](O)CC[C@]4(C)[C@H]3CC[C@]12C [3α-hydroxy-21-[1H-(2-methyl)imidazol-1-yl)-5β-pregnan-20-one]	222 nM	95%	–
CC(=O)[C@H]1CC[C@H]2[C@@H]3CC[C@@H]4C[C@@](O)(C#CCCCC(N)=O)CC[C@]4(C)[C@H]3CC[C@]12C [3β-(5'-Carboxamidopentynyl)-3α-hydroxy-5β-pregnan-20-one]	3090 nM	102%	–
CC(=O)C#C[C@@]1(O)CC[C@@]2(C)[C@@H](CC[C@@H]3[C@@H]2CC[C@]2(C)[C@@H](C(C)=O)CC[C@@H]32)C1 [3α-Hydroxy-3β-[3'-oxobutynyl]-5α-pregnan-20-one]	6510 nM	104%	–
CC(=O)OC1CCC2(C)C(CCC3C2CCC2(C)C(C(C)=O)CCC32)C1 (stereo not drawn) [Methyl]	–	–	% Protection ([1]; 60 mg/kg, 1hr, IP): 25%
C[C@@]1(O)CC[C@@]2(C)[C@@H](CC[C@@H]3[C@@H]2CC[C@]2(C)[C@@H](C(=O)Cn4ccnn4)CC[C@@H]32)C1 [3α-hydroxy-3β-methyl-21-(1',2',3'-triazol-1'-yl)-5α-pregnan-20-one]	136 nM	99%	–
